Results on 27 compounds are retold here after ChEMBL document CHEMBL1129370, “Synthesis, ligand binding, and quantitative structure-activity relationship study of 3 beta-(4'-substituted phenyl)-2 beta-heterocyclic tropanes: evidence for an electrostatic interaction at the 2 beta-position” (J Med Chem, 1996).

Some results are limits rather than exact numbers.

Assay [1] concerns the target Norepinephrine transporter (Rattus norvegicus, UniProt Q9WTR4). Nature of the assay: Binding affinity against Norepinephrine transporter using [3H]nisoxetine in midbrain of rat. Type of assay: tissue-based.
The target in assay [2] is T1, Sodium-dependent dopamine transporter (Rattus norvegicus, UniProt P23977). Put plainly: Binding affinity against Dopamine transporter using [3H]WIN-35 428 in rat striatum. In kind it is tissue-based.
Assay [3] concerns the target Sodium-dependent serotonin transporter (Rattus norvegicus, UniProt P31652). Put plainly: Binding affinity against serotonin transporter using [3H]paroxetine in rat frontal cortex. Type of assay: tissue-based.
The target in assay [4] is T1, Sodium-dependent dopamine transporter. Put plainly: Ability to inhibit [3H]dopamine uptake into rat striatal synaptosomes. Type of assay: subcellular, Brain.
Assay [5] has the same target. Nature of the assay: Ability to inhibition uptake of […].

T1 sequence (P23977 whole entry): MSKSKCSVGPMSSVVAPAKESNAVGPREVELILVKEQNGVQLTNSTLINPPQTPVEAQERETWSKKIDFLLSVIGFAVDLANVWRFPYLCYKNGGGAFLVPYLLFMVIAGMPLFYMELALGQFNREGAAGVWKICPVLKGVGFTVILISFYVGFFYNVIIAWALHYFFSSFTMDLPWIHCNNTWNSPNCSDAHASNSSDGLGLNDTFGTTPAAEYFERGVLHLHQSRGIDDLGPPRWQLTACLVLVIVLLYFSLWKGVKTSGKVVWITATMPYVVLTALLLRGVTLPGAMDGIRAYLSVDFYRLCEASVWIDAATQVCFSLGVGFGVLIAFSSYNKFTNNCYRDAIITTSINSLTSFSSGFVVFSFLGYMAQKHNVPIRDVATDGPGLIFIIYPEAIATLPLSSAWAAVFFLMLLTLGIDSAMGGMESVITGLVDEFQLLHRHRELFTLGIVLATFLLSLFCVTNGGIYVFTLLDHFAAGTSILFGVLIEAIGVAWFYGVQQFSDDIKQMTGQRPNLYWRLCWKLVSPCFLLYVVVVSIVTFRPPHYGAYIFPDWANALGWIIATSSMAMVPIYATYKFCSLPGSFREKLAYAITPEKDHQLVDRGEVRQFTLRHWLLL
Sequence of Norepinephrine transporter (Q9WTR4 whole entry): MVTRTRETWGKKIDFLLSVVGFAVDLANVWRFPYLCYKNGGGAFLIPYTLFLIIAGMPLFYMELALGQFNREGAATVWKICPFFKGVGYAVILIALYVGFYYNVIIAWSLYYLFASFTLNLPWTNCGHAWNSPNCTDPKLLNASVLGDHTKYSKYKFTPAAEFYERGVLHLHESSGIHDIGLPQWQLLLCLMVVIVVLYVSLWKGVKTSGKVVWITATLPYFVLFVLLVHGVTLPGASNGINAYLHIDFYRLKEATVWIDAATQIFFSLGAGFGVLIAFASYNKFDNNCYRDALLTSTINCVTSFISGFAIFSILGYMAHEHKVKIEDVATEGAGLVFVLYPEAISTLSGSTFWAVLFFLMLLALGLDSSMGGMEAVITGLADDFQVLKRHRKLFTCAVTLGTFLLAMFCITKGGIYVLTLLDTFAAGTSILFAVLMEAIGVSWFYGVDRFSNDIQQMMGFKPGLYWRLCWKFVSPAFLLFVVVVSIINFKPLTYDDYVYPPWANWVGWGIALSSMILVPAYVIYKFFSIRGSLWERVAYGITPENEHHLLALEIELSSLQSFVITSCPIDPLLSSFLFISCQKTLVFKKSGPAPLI
Sequence of Sodium-dependent serotonin transporter (P31652 whole entry): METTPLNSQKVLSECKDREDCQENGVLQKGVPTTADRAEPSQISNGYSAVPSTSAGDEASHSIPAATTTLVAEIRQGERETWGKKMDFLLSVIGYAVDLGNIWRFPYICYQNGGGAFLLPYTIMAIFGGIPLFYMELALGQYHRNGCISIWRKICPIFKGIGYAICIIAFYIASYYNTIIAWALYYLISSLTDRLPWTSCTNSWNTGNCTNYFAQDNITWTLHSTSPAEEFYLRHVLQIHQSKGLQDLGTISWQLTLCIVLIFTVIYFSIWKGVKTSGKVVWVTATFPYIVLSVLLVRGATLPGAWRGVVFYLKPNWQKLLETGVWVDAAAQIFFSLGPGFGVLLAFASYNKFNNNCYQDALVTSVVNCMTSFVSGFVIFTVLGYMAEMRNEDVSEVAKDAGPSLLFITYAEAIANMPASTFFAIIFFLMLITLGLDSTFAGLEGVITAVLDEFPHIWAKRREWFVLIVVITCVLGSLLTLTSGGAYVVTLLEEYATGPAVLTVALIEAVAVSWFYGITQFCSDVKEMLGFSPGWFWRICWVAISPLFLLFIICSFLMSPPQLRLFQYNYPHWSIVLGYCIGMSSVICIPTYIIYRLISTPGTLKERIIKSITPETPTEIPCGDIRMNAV

One may read the IC50 as the concentration that inhibits the measured activity by half. Read a low IC50 as higher potency. In assay [1], `COC(=O)[C@@H]1C2CC[C@H](C[C@@H]1c1ccc(C)cc1)N2C` gave a 50% inhibitory concentration (IC50) of 60 nM.

In the case of `Cc1ccc(C2C[C@H]3CCC([C@H]2c2cc(-c4ccccc4)no2)N3C)cc1` (some centres not stated), the figures for the IC50 in assay [2], in assay [1] and in assay [3] were 1.58 nM, 398 nM and 5110 nM, respectively.

As to `CN1C2CC[C@@H]1CC(c1ccc(Cl)cc1)[C@@H]2c1ncc(-c2ccccc2)s1` (some centres not stated), the IC50 turned out to be 5.71 nM in assay [2], 8560 nM in assay [1] and 10300 nM in assay [3].

`Cc1cc([C@H]2C(c3ccc(Cl)cc3)C[C@H]3CCC2N3C)on1` (some centres not stated): the IC50 in assay [2] is 0.59 nM; in assay [1] it was 181 nM; in assay [3], 572 nM.

Consider `CN1C2CCC1[C@@H](c1nnc(-c3ccccc3)s1)C(c1ccc(Cl)cc1)C2` (some centres not stated), for which the IC50 in assay [2] was 15.3 nM; in assay [1] it was 4140 nM; in assay [3], 18400 nM.

Regarding `Cc1ccc(C2C[C@H]3CCC([C@H]2c2nn[nH]n2)N3C)cc1` (some centres not stated), the half-inhibitory concentration (IC50) in assay [2] was 1560 nM; in assay [1] it was 32500 nM; in assay [3], 43600 nM.

For the compound `CN1C2CC[C@@H]1CC(c1ccc(Cl)cc1)[C@@H]2c1nnn[nH]1` (some centres not stated), the IC50 in assay [1] amounted to 17400 nM; in assay [3], 5460 nM.

Consider `Cc1ccc(C2C[C@H]3CCC([C@H]2c2nnc(C)o2)N3C)cc1` (some centres not stated), for which the IC50 in assay [2] is 4.45 nM; in assay [1], 253 nM; in assay [3], 4890 nM.

With `CN1C2CC[C@@H]1CC(c1ccc(Cl)cc1)[C@H]2c1nc2ccccc2s1` (some centres not stated), the IC50 in assay [2] was determined as 188 nM; in assay [1], 59500 nM; in assay [3] it was 5210 nM.

Usually Ki stands for a measure of affinity in units of concentration, obtained from inhibition or displacement. High values mean weaker binding, low ones tighter binding. `CN1C2CC[C@@H]1CC(c1ccc(Cl)cc1)[C@@H]2c1nnc(-c2ccccc2)o1` (some centres not stated): the IC50 in assay [2] turned out to be 12.6 nM; in assay [1] it was 929 nM; in assay [3], 3300 nM. The compound also registered a Ki in assay [4] of 18.7 nM.

As to `Cc1ccc(C2C[C@H]3CCC([C@H]2C(=O)Oc2ccccc2)N3C)cc1` (some centres not stated), the results for the IC50 in assay [2], in assay [1] and in assay [3] were 3.26 nM, 5800 nM and 24500 nM, respectively.

`Cc1ccc(C2C[C@H]3CCC([C@@H]2c2nnc(-c4ccccc4)o2)N3C)cc1` (some centres not stated): the half-inhibitory concentration (IC50) in assay [2] was 523 nM; in assay [1], 48700 nM; in assay [3] it was 65000 nM.

With `Cc1ccc(C2C[C@H]3CCC([C@H]2c2ncc(-c4ccccc4)o2)N3C)cc1` (some centres not stated), the IC50 in assay [2] turned out to be 35.4 nM; in assay [1], 677 nM; in assay [3] it was 1700 nM.

Turning to `CN1C2CC[C@@H]1CC(c1ccc(Cl)cc1)[C@@H]2c1nc2ccccc2s1` (some centres not stated), the IC50 in assay [2] is 1.37 nM; in assay [1] it was 403 nM; in assay [3] it was 1120 nM.

As to `CN1C2CCC1[C@@H](c1nc(-c3ccccc3)no1)C(c1ccc(Cl)cc1)C2` (some centres not stated), the IC50 was found to be 1.62 nM in assay [2], 245 nM in assay [1] and 195 nM in assay [3]. The compound further returned a Ki in assay [4] of 0.59 nM.

In the case of `Cc1ccc(C2C[C@H]3CCC([C@H]2c2nnc(-c4ccccc4)s2)N3C)cc1` (some centres not stated), the results for the IC50 in assay [2], in assay [1] and in assay [3] were 35.9 nM, 24300 nM and 51500 nM, respectively.

Regarding `CN1C2CC[C@@H]1CC(c1ccc(Cl)cc1)[C@@H]2C(=O)O` (some centres not stated), the IC50 was 2070 nM in assay [2], above 200000 nM in assay [1] and 59500 nM in assay [3].

For `CN1C2CC[C@@H]1CC(c1ccc(I)cc1)[C@@H]2c1cc(-c2ccccc2)no1` (some centres not stated), the IC50 in assay [2] amounted to 2.57 nM; in assay [1] it was 868 nM; in assay [3], 100 nM.

On to `CN1C2CC[C@@H]1CC(c1ccc(Cl)cc1)[C@H]2c1nnc(-c2ccccc2)o1` (some centres not stated), for which the figures for the IC50 in assay [2], in assay [1] and in assay [3] were 1100 nM, 286000 nM and 19200 nM, respectively.

As to `CN1C2CC[C@@H]1CC(c1ccc(Cl)cc1)[C@@H]2c1cc(-c2ccccc2)no1` (some centres not stated), the IC50 in assay [2] was 1.28 nM; in assay [1], 504 nM; in assay [3] it was 2420 nM. In assay [4], this compound gave a Ki of 2.08 nM.

With `Cc1ccc(C2C[C@H]3CCC([C@H]2c2nnc(-c4ccccc4)o2)N3C)cc1` (some centres not stated), the IC50 amounted to 47.5 nM in assay [2], 1310 nM in assay [1] and 23300 nM in assay [3].

As for `CN1C2CCC1[C@@H](c1ncc(-c3ccccc3)o1)C(c1ccc(Cl)cc1)C2` (some centres not stated), the IC50 in assay [2] came out at 19.7 nM; in assay [1], 496 nM; in assay [3] it was 1120 nM. Also, the affinity in assay [4], expressed as Ki, was 19 nM.

For the compound `Cc1ccc(C2C[C@H]3CCC([C@H]2c2cc(C)no2)N3C)cc1` (some centres not stated), the figures for the IC50 in assay [2], in assay [1] and in assay [3] were 0.93 nM, 254 nM and 3820 nM, respectively.

On to `Cc1ccc(C2C[C@H]3CCC([C@H]2c2nc(-c4ccccc4)no2)N3C)cc1` (some centres not stated), for which the IC50 in assay [2] stood at 2.33 nM; in assay [1] it was 60 nM; in assay [3], 1070 nM.

With `Cc1cc([C@H]2C(c3ccc(I)cc3)C[C@H]3CCC2N3C)on1` (some centres not stated), the IC50 in assay [2] was 0.73 nM; in assay [1] it was 67.9 nM; in assay [3], 36.4 nM.

For the compound `CN1C2CC[C@@H]1CC(c1ccc(Cl)cc1)[C@@H]2C(=O)Oc1ccccc1` (some centres not stated), the figures for the IC50 in assay [2], in assay [1] and in assay [3] were 1.98 nM, 2950 nM and 2300 nM, respectively. In addition, in assay [5], the Ki worked out at 5.25 nM.

Take `Cc1noc([C@H]2C(c3ccc(Cl)cc3)C[C@H]3CCC2N3C)n1` (some centres not stated): the IC50 in assay [1] was determined as 363 nM; in assay [3] it was 2580 nM.
